Measurements reported in ChEMBL document CHEMBL3272189, “Orally active esters of cephalosporin antibiotics. Synthesis and biological properties of acyloxymethyl esters of 7-(D-2-amino-2-phenylacetamido)-3-[5-methyl-(1,3,4-thiadiazol-2-yl)thiomethyl]-3-cephem-4-carboxylic acid” (J Med Chem, 1977).
Converted amounts (≈) assume the structure as drawn.

Tests used:
[1] = Drug absorption in Lai:COX (Standard)BR mouse assessed as compound remaining in gastrointestinal tract at 17 mg/kg, po after 20 mins; type: ADME, organism-based; parameters: dose 17 mg/kg, route oral; details: read-out: Stability
[2] = Half life in 0.1 M sodium phosphate buffer at 50 ug/ml at pH 4.5; type: physicochemical
[3] = Drug excretion in Lai:COX (Standard)BR mouse urine at 17 mg/kg, po after 120 mins; type: ADME, organism-based; parameters: dose 17 mg/kg, route oral; details: read-out: Drug excretion
[4] = Drug excretion in Lai:COX (Standard)BR mouse urine at 17 mg/kg, po after 60 mins; type: ADME, organism-based; parameters: dose 17 mg/kg, route oral; details: read-out: Drug excretion
[5] = Drug excretion in Lai:COX (Standard)BR mouse urine at 17 mg/kg, po after 100 mins; type: ADME, organism-based; parameters: dose 17 mg/kg, route oral; details: read-out: Drug excretion
[6] = Drug excretion in Lai:COX (Standard)BR mouse urine at 17 mg/kg, po after 80 mins; type: ADME, organism-based; parameters: dose 17 mg/kg, route oral; details: read-out: Drug excretion
[7] = Half life in 0.1 M sodium phosphate buffer at 50 ug/ml at pH 6.5; type: physicochemical
[8] = Drug excretion in Lai:COX (Standard)BR mouse urine at 17 mg/kg, po after 40 mins; type: ADME, organism-based; parameters: dose 17 mg/kg, route oral; details: read-out: Drug excretion
[9] = Drug excretion in Lai:COX (Standard)BR mouse urine at 17 mg/kg, po after 5 mins; type: ADME, organism-based; parameters: dose 17 mg/kg, route oral; details: read-out: Drug excretion
[10] = Drug excretion in Lai:COX (Standard)BR mouse urine at 17 mg/kg, po after 20 mins; type: ADME, organism-based; parameters: dose 17 mg/kg, route oral; details: read-out: Drug excretion
[11] = Half life in 0.1 M sodium phosphate buffer at 50 ug/ml at pH 7.5; type: physicochemical
[12] = Drug absorption in Lai:COX (Standard)BR mouse assessed as compound remaining in gastrointestinal tract at 17 mg/kg, po after 40 mins; type: ADME, organism-based; parameters: dose 17 mg/kg, route oral; details: read-out: Stability
[13] = Drug excretion in Lai:COX (Standard)BR mouse urine at 17 mg/kg, sc after 80 mins; type: ADME, organism-based; parameters: dose 17 mg/kg, route subcutaneous; details: read-out: Drug excretion
[14] = Drug excretion in Lai:COX (Standard)BR mouse urine at 17 mg/kg, sc after 100 mins; type: ADME, organism-based; parameters: dose 17 mg/kg, route subcutaneous; details: read-out: Drug excretion
[15] = Antibacterial activity against Salmonella heidelberg assessed as growth inhibition by gradient-plate assay; type: functional, Salmonella enterica subsp. enterica serovar Heidelberg; details: Salmonella enterica
Shigella sp. = assay: Antibacterial activity against Shigella sp. assessed as growth inhibition by gradient-plate assay; type: functional
[16] = Drug excretion in Lai:COX (Standard)BR mouse urine at 17 mg/kg, sc after 120 mins; type: ADME, organism-based; parameters: dose 17 mg/kg, route subcutaneous; details: read-out: Drug excretion
Serratia marcescens = assay: Antibacterial activity against Serratia marcescens assessed as growth inhibition by gradient-plate assay; type: functional
Blood = assay: Drug uptake in Lai:COX (Standard)BR mouse blood at 17 mg/kg, po; type: ADME, organism-based; parameters: dose 17 mg/kg, route oral; details: in vivo
[17] = Drug excretion in Lai:COX (Standard)BR mouse urine at 17 mg/kg, sc after 40 mins; type: ADME, organism-based; parameters: dose 17 mg/kg, route subcutaneous; details: read-out: Drug excretion
Staphylococcus aureus = assay: Antibacterial activity against penicillin-resistant, coagulase-positive Staphylococcus aureus assessed as growth inhibition by gradient-plate assay; type: functional
Klebsiella pneumoniae = assay: Antibacterial activity against Klebsiella pneumoniae assessed as growth inhibition by gradient-plate assay; type: functional
[18] = Drug excretion in Lai:COX (Standard)BR mouse urine at 17 mg/kg, sc after 60 mins; type: ADME, organism-based; parameters: dose 17 mg/kg, route subcutaneous; details: read-out: Drug excretion
Klebsiella aerogenes = assay: Antibacterial activity against Enterobacter aerogenes assessed as growth inhibition by gradient-plate assay; type: functional
[19] = Drug excretion in Lai:COX (Standard)BR mouse urine at 17 mg/kg, sc after 5 mins; type: ADME, organism-based; parameters: dose 17 mg/kg, route subcutaneous; details: read-out: Drug excretion
Escherichia coli = assay: Antibacterial activity against Escherichia coli assessed as growth inhibition by gradient-plate assay; type: functional
[20] = Drug excretion in Lai:COX (Standard)BR mouse urine at 17 mg/kg, sc after 20 mins; type: ADME, organism-based; parameters: dose 17 mg/kg, route subcutaneous; details: read-out: Drug excretion

| Compound | remaining at 20 min [1] | half-life at 50 ug/ml [2] | dose excreted at 2 h [3] | dose excreted at 1 h [4] | dose excreted at 100 min [5] | dose excreted at 80 min [6] | half-life at 50 ug/ml [7] | dose excreted at 40 min [8] | dose excreted at 20 min [10] | half-life at 50 ug/ml [11] | remaining at 40 min [12] | MIC [15] | MIC (Shigella sp.) | MIC (Serratia marcescens) | MIC (Staphylococcus aureus) | MIC (Klebsiella pneumoniae) | MIC (Klebsiella aerogenes) | MIC (Escherichia coli) | other results |
| --- | --- | --- | --- | --- | --- | --- | --- | --- | --- | --- | --- | --- | --- | --- | --- | --- | --- | --- | --- |
| Cc1nnc(SCC2=C(C(=O)OCOC(=O)C(C)(C)C)N3C(=O)[C@@H](NC(=O)[C@H](N)c4ccccc4)[C@H]3SC2)s1.Cl | 40.5% | 32 h | 41.5% | 43.2% | 41.8% | 48.2% | 45 min | 38.9% | 20.8% | 25 min | 25% | – | – | – | – | – | – | – | dose excreted at 5 min [9]: 3.6% |
| Cc1nnc(SCC2=C(C(=O)O)N3C(=O)[C@@H](NC(=O)[C@H](N)c4ccccc4)[C@H]3SC2)s1 | 81.2% | 47 h | 14.1% | 13.2% | 22.4% | 17.5% | 76 min | 8.4% | 2.8% | 54 min | 67.5% | 1 µg/mL (≈ 2.09 µM) | 1 µg/mL (≈ 2.09 µM) | 26.5 µg/mL (≈ 55.5 µM) | 0.7 µg/mL (≈ 1.47 µM) | 0.6 µg/mL (≈ 1.26 µM) | 0.8 µg/mL (≈ 1.68 µM) | 1 µg/mL (≈ 2.09 µM) | dose excreted at 80 min [13]: 56.7%; dose excreted at 100 min [14]: 54.1%; dose excreted at 2 h [16]: 54.1%; Drug uptake (Blood): Active; dose excreted at 40 min [17]: 46.5%; dose excreted at 1 h [18]: 50.7%; dose excreted at 5 min [19]: 2.8%; dose excreted at 20 min [20]: 25% |
| CC(=O)OCOC(=O)C1=C(CSc2nnc(C)s2)CS[C@@H]2[C@H](NC(=O)[C@H](N)c3ccccc3)C(=O)N12.Cl | 39.1% | 27 h | 36.8% | 33.1% | 38.3% | 36.1% | 60 min | 32.5% | 20.4% | 25 min | 31.5% | – | – | – | – | – | – | – | – |
| Cc1nnc(SCC2=C(C(=O)OC3OC(=O)c4ccccc43)N3C(=O)[C@@H](NC(=O)[C@H](N)c4ccccc4)[C@H]3SC2)s1.Cl (stereo not given in full) | 59% | – | – | 35% | 34% | 30.5% | 25 min | 22.1% | 8.3% | 15 min | 35% | – | – | – | – | – | – | – | – |
| CC1=C(C(=O)O)N2C(=O)[C@@H](NC(=O)[C@H](N)c3ccccc3)[C@H]2SC1 [CEPHALEXIN ANHYDROUS] | – | – | – | – | – | – | – | – | – | – | – | 5.5 µg/mL (≈ 15.8 µM) | 9 µg/mL (≈ 25.9 µM) | 140 µg/mL (≈ 403 µM) | 4.5 µg/mL (≈ 13 µM) | 7 µg/mL (≈ 20.1 µM) | 6.8 µg/mL (≈ 19.6 µM) | 8.5 µg/mL (≈ 24.5 µM) | – |
